Key:
[1] = Wettability: contact angle measurement with water on pressed powder; format: physicochemical; settings: for Contact angle: water, listed as A, in ° (unit assumed)
Description: Contact angel instrument: EasyDrop DSA15E (Krüss, Hamburg, Germany)
Syringe: NE44, diameter of needle 0.5 mm (Krüss, Hamburg, Germany)
The powder was pressed (approx 50 mg powder, 3 tons, 2 min) in tablets and analyzed by contact angle measurement. The angel between the solid and the liquid is measured after 0 and up to 60 seconds using water.
All determinations used the above method and the limit for the standards measurements are well within the given limits.

[2] = Super-saturation measurement (CheqSol): intrinsic and kinetic solubility; format: physicochemical
Description: Anal. Chem. 2005, 77(4), 983-990; 2—Box, K J. Völgyi, G. Baka, E. Stuart, M. Takács-Novák, K. Corner, J E A. Equilibrium vs. kinetic measurements of aqueous solubility, and the ability of compounds to supersaturate in solution—a validation study. J. Pharm. Sci. 2006, 95, 1298-1307; 3—Sköld, C. Winiwarter, S. Johan Wernevik, J. Bergström, F. Engström, L. Allen, R. Box, K. Corner, J. Mole, J. Hallberg, A. Lennernäs, H. Lundstedt, T. Ungell, A-L. Karlén, A. Presentation of a Structurally Diverse and Commercially Available Drug Data Set for Correlation and Benchmarking Studies. J. Med. Chem. 2006, 49(23), 6660-6671;
. Med. Chem.; 2007, 50 (5), 979-983; 5—Llinás, A. Box, K J. Burley, J C. Glen, R C. Goodman, J M. J. A new method for the reproducible generation of polymorphs: two forms of Sulindac with very different solubilities. […] 6—Box K et al, Using Measured pKa, Log P and Solubility to Investigate Supersaturation and Predict BCS Class, Current Drug Metabolism, 2008, 9, 869-878]
1—kinetic solubility is the concentration of a compound in solution at the time when an induced precipitate first appears
2—equilibrium solubility (also called thermodynamic solubility) is the concentration of compound in a saturated solution when excess solid is present, and solution and solid are at equilibrium
3—intrinsic solubility [Hörter, D.; Dressman, J. B. Adv. Drug Deliv. Rev., 1997, 25, 3-14] is the equilibrium solubility of the free acid or base form of an ionisable compound at a pH where it is fully un-ionized
The super-saturation ratio is calculated as the ratio of kinetic solubility divided by the Intrinsic Solubility.

[3] = Saturation solubility, shake-flask with UV quantification; format: physicochemical; settings: for final pH measured of the supernatant / Saturation solubility: listed as The compound of formula (I), form A
Description: The FaSSIF and FeSSIF solutions were prepared using Phares SIF powder according to the formulation instructions and the SGF solution was prepared using the guidelines provided. […] The pH and temperature of the supernatant were measured on a SiriusT3 instrument.

[4] = Solubility-excipient screening (Sirius CheqSol, 0.15 M aqueous KCl); format: physicochemical; settings: drug:excipient 1:1 by weight, Form A titrated from pH 12 with 0.5 M HCl
Description: In all experiments, the compound of formula (II) and excipient were present at a 1:1 weight ratio. For each excipient, Form A of the potassium salt was titrated at an initial concentration of ˜1 mg/ml from pH 12 to low pH with 0.5 M HCl. A UV-turbidity probe was used to detect the presence of sample precipitate and all experiments were carried out according to standard CheqSol procedure.

[5] = cited from earlier work

Row | Compound | surface hydrophobilicity from contact angle ([1]; critical angle around 50° (>50° hydrophob <50° hydrophil), listed as polymorph A) | Contact angle ([1]; 0 sec) | Contact angle ([1]; 30 sec) | Contact angle ([1]; 60 sec) | solubility kinetic ([2]; kinetic from dmso stock, CheqSol) | ratio super saturation ([2]; kinetic solubility divided by intrinsic solubility, listed as K-salt-Form A) | solubility ([2]; thermodynamic from solid, CheqSol) | final pH measured of the supernatant ([3]; FaSSIF pH 6.5-1w) | Saturation solubility ([3]; FeSSIF pH 5.0-1w, mean N = 2) | final pH measured of the supernatant ([3]; FeSSIF pH 5.0-1w) | Saturation solubility ([3]; Na Phosphate pH 6.8, mean N = 2) | final pH measured of the supernatant ([3]; Na Phosphate pH 6.8) | Saturation solubility ([3]; Na-Acetate pH 4.5, mean N = 2) | final pH measured of the supernatant ([3]; Na-Acetate pH 4.5) | Saturation solubility ([3]; SGF pH 2.1, mean N = 2) | final pH measured of the supernatant ([3]; SGF pH 2.1) | solubility at 72 h ([3]; pH 6.5, fassif, thermodynamic from solid, FaSSIF pH 6.5-1w, mean N = 2) | pH first precipitation occurs [4] | Kinetic solubility ([4]; ~1 mg/ml) | Aqueous Solubility [5]
1 | CNc1cc2[nH]c(=O)n(-c3ccc(NC(=O)[N-]S(=O)(=O)c4ccc(Cl)s4)cc3)c(=O)c2cc1F.[K+] [Form A] | hydrophob | 78.8 | 53.3 | 51.0 | 6.57 µg/mL | 412 | 0.0159 µg/mL | 6.93 | 2.76 µg/mL | 5.15 | 20.25 µg/mL | 6.94 | 0.48 µg/mL | 4.81 | 2.24 µg/mL | 4.74 | 107 µg/mL | 5.3 | 12.57 µM | 
2 | NCCCC[C@H](N)C(=O)O [Lysine] |  |  |  |  |  |  |  |  |  |  |  |  |  |  |  |  |  |  |  | free soluble

Source: patent US8987285B2, “Pharmaceutical compositions, dosage forms and new forms of the compound of formula (I), and methods of use thereof” (Portola Pharmaceuticals, Inc., priority 2010, dated 2015)
